Paper PMC12249711, “Comprehensive Evaluation of 1H-Isoindole-1,3(2H)-Dione Derivatives: Pharmacokinetic Studies and Analgesic Potential in Various Pain Models” (International Journal of Molecular Sciences, 2025)
Like-named read-outs stand apart in the source and are kept apart here.

Assays:
[1] = design: method as in PMID 35396875; conditions: within the tested dose range; cited from earlier work
[2] = Pharmacokinetic study after single i.p. administration, serum and brain concentrations by LC-MS/MS, non-compartmental analysis; type: in vivo, Albino Swiss mice; conditions: mice; for half-life: read-out: t1/2(λz) half-life in the elimination phase (converted); for k el: read-out: λz (terminal elimination rate constant) (converted)
Description: The compounds F1, F2, F3, and F4 were suspended in a 1% Tween 80 solution in sterile water for injection and given to mice i.p. at a dose of 5 mg/kg (n = 3 per time point; all mice in procedure = 96) as a single injection at a volume of 10 mL/kg. At specific time points (5; 15; 30; 60; 120; 240; 360; and 480 min after compound administration), mice were sacrificed by decapitation under isoflurane (5%) anesthesia to harvest blood and brain for assays. After allowing the blood to coagulate for 20 min at room temperature, blood samples were centrifuged for 10 min at 8000 rpm (Eppendorf miniSpin centrifuge) to obtain serum. Moreover, brains were removed (at the same time point) from skulls and washed with 0.9% NaCl. The obtained serum and brains were stored at −80 °C until analysis.
Concentrations of compounds F1 to F4 in mice brains and serum were measured by the liquid chromatography tandem mass spectrometry (LC-MS/MS) method using a Sciex QTRAP 4500 triple quadrupole mass spectrometer coupled to an Excion LC AC HPLC system (both from Danaher Corporation, Washington, DC, USA). The brains were homogenized in distilled water at the ratio of 1:4 (w/v) with a tissue homogenizer ULTRA-TURRAX T10 basic (IKA, Königswinter, Germany). The stock solutions of analyzed compounds were prepared in methanol at the concentration of 1 mg/mL. For the preparation of calibration curves, working standard solutions were prepared in methanol by the serial dilution of the stock solution at the following concentrations: 0.005; 0.01; 0.1; 0.25; 0.5; 1; 2.5; 5; and 10 µg/mL. To prepare samples for the calibration curve, 45 μL of matrix (blank plasma or brain homogenate) was spiked with 5 μL of standard working solution at an appropriate concentration level and vortexed for 10 s. Brain homogenates or serum samples (50 µL) as well as calibration samples were deproteinized with 150 μL of 0.1% formic acid in acetonitrile with an addition of internal standard (valsartan), shaken for 10 min (IKA Vibrax VXR, Königswinter, Germany), and centrifuged for 5 min at a speed of 8000× g (Eppendorf miniSpin centrifuge, Hamburg, Germany). Then, brain or serum supernatants were transferred into the autosampler vials. The autosampler temperature was maintained at 15 °C and a sample volume of 1 μL was injected into the LC-MS/MS system.
Chromatographic separation was carried out on the Hypersil GoldTM C18 analytical column (2.1 × 50 mm, 3 µm, Thermo Scientific, Waltham, MA, USA) with the oven temperature set at 30 °C. The mobile phase containing 0.1% formic acid in acetonitrile and 0.1% formic acid in water was delivered at a flow rate of […] in the gradient mode. Electrospray ionization (ESI) in the positive ion mode was used for ion production. The tandem mass spectrometer was operated at unit resolution in the selected reaction monitoring mode (SRM), monitoring the transitions of the protonated molecular ions m/z 366 to 201 (CE = 40 eV) and m/z 366 to 160 (CE = 40 eV) for compound F1, m/z 396 to 190 (CE = 39 eV) and m/z 396 to 160 (CE = 49 eV) for compound F2, m/z 434 to 145 (CE = 95 eV) and m/z 434 to 160 (CE = 47 eV) for compound F3, and m/z 456 to 167 (CE = 27 eV) and m/z 456 to 152 (CE = 85 eV) for compound F4. The first pair was used as a quantifier and the second for the identity verification—qualifier. One pair (m/z 436 to 235; CE = 42 eV) was monitored for valsartan used as an internal standard. The mass spectrometric conditions were optimized by continuous infusion of the standard solutions at the rate of 7 μL/min using a Harvard infusion pump (Harvard Apparatus, Holliston, MA, USA). The ion source temperature was maintained at 450 °C and the ion spray voltage was set at 4500 V. The curtain gas (CUR) was set at 40 and the collision gas (CAD) at Medium. The calibration curves were constructed by plotting the ratio of the peak area of the studied compound to internal standard (IS) versus drug concentration and generated by weighted (1/x·x) linear regression analysis. […]

rats = assay: Carrageenan-induced paw edema (plethysmometer); type: in vivo, Wistar rats; conditions: for Change in Edema Volume: mean ± SEM, rats; for Reduction in edema volume: vs control
Description: The acute and local inflammation and paw edema was induced by intraplantar (i.pl.) injection of 0.1 mL of 1% carrageenan solution in PBS into the rat’s right hind paw, according to the modified method of Winter and Lence, as described previously; (n = 84). […] Vehicle (1% Tween 80) was administered by the same route as the tested compounds.

mice = assay: Formalin test; type: in vivo, Albino Swiss mice; conditions: vs vehicle; for Reduction of pain reaction (licking duration), neurogenic phase: phase I (0–5 min); for Reduction of pain response, inflammatory phase: phase II (15–30 min)
Description: The pain reaction was induced by intraplantar (i.pl.) injection of 20 μL of 2.5% formalin solution into the right hind paw of the mouse (n = 136). […] Time (in seconds) spent on licking or biting the injected hind paw in selected intervals, 0–5 min (neurogenic phase) and 15–30 min (inflammatory phase), was measured in each group and was an indicator of nociceptive behavior. The procedure was based on the method described by with some modifications by.

[3] = Albino Swiss, mouse, ip, brain, 5 mg/kg i.p.
[4] = Albino Swiss, mouse, ip, serum, 5 mg/kg i.p.

Compound: O=C1c2ccccc2C(=O)N1CC(O)CN1CCN(C(c2ccccc2)c2ccccc2)CC1 (stereo not drawn) [Compound F4]
- Effect on locomotor activity / sedation [1]: did not impair locomotor activity
- Kp ([2]; Albino Swiss, mouse, brain/serum, ip, 5 mg/kg i.p., read-out: Kbrain/serum (brain/serum partitioning coefficient)): 1.62
- MRT [2, 3]: 1.63 h
- Tmax [2, 3]: 15 min
- half-life [2, 3]: 46.8 min
- k el [2, 3]: 0.000247 s⁻¹
- Cmax ([2]; Albino Swiss, mouse, ip, serum, 5 min after 5 mg/kg i.p., read-out: Cmax (maximal concentration)): 131 ng/mL
- CL/F [2, 4]: 800 mL/min/kg
- MRT [2, 4]: 1.47 h
- Tmax [2, 4]: 4.98 min
- Vd/F ([2]; Albino Swiss, mouse, ip, serum, 5 mg/kg i.p., read-out: Vz/F): 55.8 L/kg
- half-life [2, 4]: 48 min
- k el [2, 4]: 0.000239 s⁻¹
- AUC0-inf ([2]; brain, 5 mg/kg i.p.): 168.99 µg∙h/L(kg)
- AUC0–8h ([2]; brain, 5 mg/kg i.p.): 164.50 µg∙h/L(kg)
- Cmax ([2]; brain, 5 mg/kg i.p. single dose): 163.5 µg/L(kg)
- AUC0-inf ([2]; serum, 5 mg/kg i.p.): 104.12 µg∙h/L(kg)
- AUC0–8h ([2]; serum, 5 mg/kg i.p.): 101.99 µg∙h/L(kg)
- Cmax ([2]; serum, 5 mg/kg i.p. single dose): 130.58 µg/L(kg)
- Change in Edema Volume (rats; 10 mg/kg i.p., 1 h after carrageenan): 1.37 ± 0.04 mL
- Change in Edema Volume (rats; 10 mg/kg i.p., 2 h after carrageenan): 1.56 ± 0.06 mL
- Change in Edema Volume (rats; 10 mg/kg i.p., 3 h after carrageenan): 1.85 ± 0.04 mL
- Reduction in edema volume (rats; 10 mg/kg, 1 h): 8.7%
- Reduction in edema volume (rats; 10 mg/kg, 2 h): 17%
- Reduction in edema volume (rats; 10 mg/kg, 3 h): 15.5%
- Change in Edema Volume (rats; 20 mg/kg i.p., 1 h after carrageenan): 1.23 ± 0.01 mL
- Change in Edema Volume (rats; 20 mg/kg i.p., 2 h after carrageenan): 1.47 ± 0.05 mL
- Change in Edema Volume (rats; 20 mg/kg i.p., 3 h after carrageenan): 1.73 ± 0.02 mL
- Reduction in edema volume (rats; 20 mg/kg, 1 h): 18%
- Reduction in edema volume (rats; 20 mg/kg, 2 h): 21.8%
- Reduction in edema volume (rats; 20 mg/kg, 3 h): 21%
- Reduction of pain reaction (licking duration), neurogenic phase (mice; 5 mg/kg i.p.): did not attenuate the nociceptive response
- Reduction of pain reaction (licking duration), neurogenic phase (mice; 10 mg/kg i.p.): did not attenuate the nociceptive response
- Reduction of pain reaction (licking duration), neurogenic phase (mice; 20 mg/kg i.p.): 48.3%
- Reduction of pain response, inflammatory phase (mice; 10 mg/kg i.p.): 29.5%
- Reduction of pain response, inflammatory phase (mice; 20 mg/kg i.p.): 42%
